According to patent US4743606A, “3-[2-(3',5'-di-t-butyl-4'-hydroxyphenyl)ethenyl]pyridine having anti-inflammatory and anti-arthritic properties” (Boehringer Ingelheim Pharmaceuticals, Inc., priority 1986, dated 1988):
Read-outs that look alike come from different tables or passages of the source.

How the values were obtained:
[1] = tested on: Polyarthritis (adjuvant-induced, heat-killed Mycobacterium butyricum) in male CD rats; test: Developing Adjuvant-Induced Polyarthritis in Rats; assay type: in vivo, rat; conditions: for % Inhibition: oral, once daily 14 days, non-injected hind paw volume
Description: This test is used to determine the ability of compounds to affect the immunological processes involved in the induction and development of arthritis.
(§1) Polyarthritis is induced in male CD rats (150-170 g) by injection of heat-killed Mycobacterium butyricum. Each animal is given 0.1 ml of a 0.5% (5 mg/ml) adjuvant suspension in light mineral oil injected subcutaneously into the plantar surface of the right hind foot. At least 6 rats are used in each test group. Animals are dosed orally with test compound immediately after adjuvant injection, and once daily for a total of 14 days. Foot volumes are measured 24 hours after the final dose by mercury displacement to the lateral malleolus. Mean displacement volumes and their standard errors are calculated for the non-injected hind paws. Untreated normal and arthritic control groups are used as comparison for test compound effect. Results are expressed as percent of control effect.
The experiments reported here are performed using the same procedures as described in Example 3, except that 4-[2-(3',5'-di-t-butyl-4'-hydroxyphenol)ethenyl]pyridine (prior art) is under assay rather than the compound of the invention.

[2] = tested on: reverse passive arthus reaction (paw swelling) in rats; test: Reverse Passive Arthus Reaction; assay type: in vivo, rat
Description: The reverse passive arthus reaction is initiated by the interaction of antigen and antibody resulting in the formation of a precipitating immune complex, followed by fixation of complement, accumulation of leukocytes, edema and hemorrhage. The immunopathology of rheumatoid arthritis involves many of the parameters found in this reaction.
Test groups (5 rats per group) are dosed orally with compounds one hour prior to the sub-plantar injection into the right hind paw of rabbit anti-ovalbumin antibody (50 μg/0.1 ml). Immediately afterwards, ovalbumin (Sigma, #5503) (5 mg/0.2 ml) is injected i.v. via the tail vein. The right hind paw volume is measured at hourly intervals, from one to four hours after the injection of the immune reactants.
The change in paw volume for each animal is calculated by subtracting the zero hour paw volume (before injection) from the paw volume at the time of measurement. The mean of these values is calculated for each group. Results are expressed as percent inhibition of paw swelling compared to untreated controls.

[3] = tested on: established adjuvant-induced polyarthritis in rats; test: Established Adjuvant-Induced Polyarthritis in Rats; assay type: in vivo, rat
Description: as §1
This assay is used to determine the ability of compounds to affect an established chronic inflammatory condition.
Rats in which polyarthritis has become established are selected 14 days after receiving the adjuvant suspension. They are treated daily with oral doses of test compound for 14 days (days 14-27). […] 24 hours after the final dose.

[4] = tested on: carrageenan induced paw edema in male CD rats; test: Carrageenan Induced Paw Edema in Rats; assay type: in vivo, rat
Description: This test is used to determine the ability of a compound to affect non-immune acute inflammation. Edema is produced in the right hind paw of male CD rats (150±10 g) by the subplantar injection of carrageenan (0.1 ml of a 1 percent suspension in saline). Ten rats are used in each test group. Test compound or its vehicle is administered orally 1 hour prior to carrageenan injection. Paw volume is determined by calculating the amount of mercury displaced after immersing the paw to the level of the lateral malleolus. Foot volumes are measured just prior to test compound administration and again 3 hours after carrageenan injection and the difference designated as edema volume.

[5] = tested on: MMC-16 cells, LTC4 release (lipoxygenase pathway); test: Mouse Mastocytoma Cell Leukotriene Release; assay type: cell-based
Description: The MMC-16 cell line represents a convenient in vitro model for studying the lipoxygenase pathway and offers an effective screening method by which inhibitory test compounds can be identified.
Cultured MMC-16 cells are suspended in Ca^++ free phosphate buffer at a concentration of 10^7 cells/ml. The cell suspension is distributed into plastic culture tubes, 1 ml/tube. Duplicate tubes are used for each drug concentration tested, with drug solution (0.2 ml) added to each tube. An ionophore control consists of Ca^++ free buffer (0.2 ml) added to two tubes, and a blank (0.4 ml Ca^++ free buffer) added to two tubes. CaCl2 solution (0.1 ml) is added to the drug and ionophore control tubes, which are vortexed and incubated at 37° C. for 40 minutes. The tubes are then centrifuged at 1,000×g for 10 minutes, and the supernatants collected and added to 4 volumes of absolute ethanol. LTC4 content is then assayed for by either radioimmunoassay or high performance liquid chromatography.

5-Lipoxygenase = biological target: T1, 5-Lipoxygenase (Oryctolagus cuniculus, UniProt G1SNX0); test: Hydroxyacid Profile Assay of 5-Lipoxygenase Derived Arachidonic Acid Metabolites (5-HETE biosynthesis by glycogen-elicited PMNs); assay type: cell-based, rabbit
T1 construct: glycogen elicited rabbit PMNs; endogenous in cells; host or cells: glycogen-elicited rabbit polymorphonuclear leucocytes (PMNs)
T1 sequence (G1SNX0 1-674): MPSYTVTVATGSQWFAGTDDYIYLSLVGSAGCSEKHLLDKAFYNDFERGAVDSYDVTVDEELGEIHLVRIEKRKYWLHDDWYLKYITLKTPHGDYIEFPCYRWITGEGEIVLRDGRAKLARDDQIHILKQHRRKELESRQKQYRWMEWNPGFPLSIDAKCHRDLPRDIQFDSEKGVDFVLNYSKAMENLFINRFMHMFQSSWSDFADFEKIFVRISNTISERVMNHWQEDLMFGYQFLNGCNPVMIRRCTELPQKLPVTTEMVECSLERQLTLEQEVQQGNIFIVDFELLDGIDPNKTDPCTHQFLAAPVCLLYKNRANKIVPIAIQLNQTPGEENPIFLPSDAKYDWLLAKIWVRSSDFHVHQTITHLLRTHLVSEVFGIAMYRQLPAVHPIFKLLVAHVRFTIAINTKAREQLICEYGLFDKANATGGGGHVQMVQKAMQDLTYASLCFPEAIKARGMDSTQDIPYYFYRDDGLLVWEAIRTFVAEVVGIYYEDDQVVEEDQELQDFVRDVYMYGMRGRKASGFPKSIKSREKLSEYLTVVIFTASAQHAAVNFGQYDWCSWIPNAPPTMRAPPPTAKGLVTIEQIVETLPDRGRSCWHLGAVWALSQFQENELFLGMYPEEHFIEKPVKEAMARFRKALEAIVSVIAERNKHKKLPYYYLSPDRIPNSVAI
Description: Buffer A (8.70 g NaCl; 0.27 g KCl; 0.42 g Na2 HPO4; 0.76 g KH2 PO4; and 1.00 g dextrose per liter H2 O; pH 7.0) (0.325 ml) is introduced into each of a battery of screwtop culture tubes. Then, a compound (0.100 ml) to be assayed is dispensed into individual tubes. Dose-response curves are determined by triplicate measurements at each concentration. Control tubes receive Buffer A (0.100 ml) in lieu of compound. Next, glycogen elicited rabbit PMNs (2×10^7 cells/tube; 4×10^7 cells/ml (0.500 ml) are added to each tube. The tubes are vortexed and preincubated in a shaking 37° C. water bath for 15 minutes.
Thereafter, the tubes are removed from the water bath and Calcium Ionophore Solution (400 μg/ml A-23187; Sigma Chemical Co., St. Louis, MO) (0.025 ml), ^14 C-arachidonic acid (0.25 μCi in 0.025 ethanol; New England Nuclear Products, Boston, MA) (0.025 ml) and Ca^+2 solution (CaCl2.2H2 O); 105.8 mg/10 ml H2 O) (0.025 ml) are added in that order. The tubes are vortexed and returned to the water bath for 30 minutes. The reaction is then terminated by the addition of HCl (0.8N, 0.025 ml).
Extraction and concentration of ^14 C-labeled 5-HETE is performed as follows. First, a solution (5.01 ml) containing 2 parts ethyl acetate, 3 parts CH2 Cl2 and unlabeled arachidonic acid (0.01 ml) is added to each tube. The tubes are capped and briefly vortexed. The contents of each tube are poured into a polypropylene column fitted with a porous polyethylene disc and Whatman phase separation filter paper. The organic phase is collected by gravity filtration into a conical centrifuge tube, while the aqueous phase is retained in the column by the phase separation paper. Each culture tube is rinsed once with the EtOAc:CH2 Cl2 solution (no arachidonic acid) (0.1 ml) and the wash added to the column. The organic phase is concentrated (to 0.5 ml) using a Savant Speed Vac concentrator (Savant Instruments, Inc., Hicksville, NY).
After concentration of the organic phase, the tubes are vortexed and stored covered on ice. An aliquot (0.01 ml) is then removed for liquid scintillation counting in a Beckman LS7500 Liquid Scintillation Counter (Beckman Instruments Corp., Fullerton, CA). […] This volume is applied to a silica gel covered glass plate in a 10 mm streak. The remaining fluid in the tube is measured via syringe and noted.
The TLC plate is placed in a chromatography chamber containing the following solvent system: CHCl3 :MeOH:HOAc:H2 O(v/v; 90:9:1:0.65). The plate is then air dried and counter on a Berthold Linear TLC Analyzer (Berthold Instruments, Inc., Pittsburgh, PA) for 30 minutes per lane. The integrated area of the 5-HETE band for each compound is converted to percent of control and analyzed.

in vivo = conditions: rat
Description: A 50% ulcerogenic response in the animals tested (UD50) at 200 mg/kg for 4 days is observable when the rats are examined 24 hours after the last dose.

[6] = tested on: Human neutrophils (respiratory burst, H2O2 production); test: Effect of Test Compound on H2O2 Production by Neutrophils (PMNs); assay type: cell-based; conditions: for IC50: Homo sapiens, Neutrophil
Excerpt: During this process molecular oxygen is converted to superoxide anion, which in turn yields hydrogen peroxide, hydroxyl radical and products of myeloperoxidase action. These activated oxygen species contribute to the cells microbiocidal activity. However they have also been reported to contribute to the inflammatory process and tissue destruction in rheumatic diseases [J. Fantone and P. Ward, Amer. […] This assay measures the ability of a test compound to inhibit the respiratory burst process by its effect on hydrogen peroxide production.
Either 10 μL stock solution of test compound or 10 μL medium is added to the appropriate tubes, followed by 1 ml cells in each tube. The tubes are incubated at 37° C. for 15 minutes. To the PMA stimulated group 10 μL/tube 10^-5 M PMA is added. To the opsonized zymosan stimulated group 20 μL/tube 10 mg/ml opsonized zymosan is added. The tubes are mixed gently to disperse cells and stimulus (if any) and 100 μL is pipetted into each of four microtiter plates. The plates are covered and incubated 1 hour at 37° C. in CO2.
After the incubation period 10 μL 1N NaOH is added to each test well to develop the color. A blanking well is made up of 110 μl distilled water.
Mean OD values are calculated for each set of quadruplicate wells. Any artifactual change in absorbance due to a direct drug effect on the detection system is subtracted out from the ΔOD of the stimulated cells+drug tubes. The % inhibition of H2 O2 release by PMA or opsonized zymosan is calculated relative to the "O drug" control for each stimulus as follows: […]

## CC(C)(C)c1cc(C=Cc2ccncc2)cc(C(C)(C)C)c1O [4-[2-(3',5'-di-t-butyl-4'-hydroxyphenyl)ethenyl]pyridine, reference compound]
[1]; 50 mg/kg
  % Inhibition: 0%

## CC(C)(C)c1cc(C=Cc2cccnc2)cc(C(C)(C)C)c1O [Compound 1, 3-[2-(3,5-di-t-butyl-4-hydroxyphenyl)ethenyl]-pyridine]
[2]; 1 mg/kg oral, hour 1
  % Inhibition: 17%
[2]; 1 mg/kg oral, hour 2
  % Inhibition: 19%
[2]; 1 mg/kg oral, hour 3
  % Inhibition: 26%
[2]; 1 mg/kg oral, hour 4
  % Inhibition: 10%
[2]; 30 mg/kg oral, hour 1
  % Inhibition: 29%
[2]; 30 mg/kg oral, hour 2
  % Inhibition: 50%
[2]; 30 mg/kg oral, hour 3
  % Inhibition: 55%
[2]; 30 mg/kg oral, hour 4
  % Inhibition: 44%
[2]; 100 mg/kg oral, hour 1
  % Inhibition: 7%
[2]; 100 mg/kg oral, hour 2
  % Inhibition: 48%
[2]; 100 mg/kg oral, hour 3
  % Inhibition: 55%
[2]; 100 mg/kg oral, hour 4
  % Inhibition: 22%
[2]; in words
  activity in reverse passive arthus screen: active
[3]; 5.0 mg/kg, oral, daily days 14-27
  % Inhibition: 60%
[3]; 10.0 mg/kg, oral, daily days 14-27
  % Inhibition: 74%
[3]; 20.0 mg/kg, oral, daily days 14-27
  % Inhibition: 79%
[3]; 40.0 mg/kg, oral, daily days 14-27
  % Inhibition: 82%
[3]; in words
  activity in established adjuvant arthritis screen in the rat: active
[3]; rat established adjuvant arthritis, oral, daily days 14-27
  ED50: 4 mg/kg
[4]; 100 mg/kg, oral, 1 hour prior to carrageenan, edema at 3 hours
  % Inhibition: 56%
[4]; in words
  activity in carrageenan paw edema screen: active
[5]; 3 × 10^-5 M
  inhibition at 30 µM: 100%
[5]; 3 × 10^-6 M
  inhibition at 3 µM: 18%
[5]; 10^-5 M
  inhibition at 10 µM: 67%
[5]; 10^-6 M
  inhibition at 1 µM: 0%
[5]; LTC4 release, MMC-16 cells
  IC50: 7 µM
5-Lipoxygenase
  IC50: 3 µM
5-Lipoxygenase; 5 × 10^-5 M
  inhibition at 50 µM: 66%
5-Lipoxygenase; 5 × 10^-6 M
  inhibition at 5 µM: 68%
5-Lipoxygenase; 5 × 10^-7 M
  inhibition at 0.5 µM: 18%
5-Lipoxygenase; 10^-5 M
  inhibition at 10 µM: 67%
5-Lipoxygenase; 10^-6 M
  inhibition at 1 µM: 29%
5-Lipoxygenase; in words
  inhibition of 5-lipoxygenase: inhibit
[1]; 5 mg/kg
  % Inhibition: 56%
[1]; 50 mg/kg
  % Inhibition: 82%
[1]; in words
  activity in developing adjuvant arthritis screen in the rat: active
In vivo
  TD50 at 24 h: 200 mg/kg
[6]; read-out: Opsonized Zymosan Stimulated Oxidative Burst IC50
  IC50: 14 µM
[6]; read-out: PMA Stimulated Oxidative Burst IC50
  IC50: 25 µM
[6]; in words
  release of pro-inflammatory oxygen metabolites from stimulated neutrophils: inhibited
